In PMC8705362, “Cytochrome P450 and P-gp Mediated Herb-Drug Interactions and Molecular Docking Studies of Garcinol” (Membranes, 2021):
Where two headings read alike, the source gives them in different places.

Assays:
[1] = test system: CYP2B6; assay: In-vivo CYP inhibition study, pharmacokinetics of probe bupropion and hydroxy bupropion; conditions: plasma
[2] = test system: P-gp; assay: In-vivo P-gp pharmacokinetic study with digoxin; set-up: species or system SD rats; conditions: for Cl / Cmax / AUC(0-inf) / AUC(0-t) / half-life: SD rats, plasma; for Cmax / AUC(0-inf) / AUC(0-t) / half-life: rat, po; for Cmax: 0.5 mg/kg
Description: Effect of single dose garcinol on the P-gp was evaluated in-vivo, 18 rats were divided into three groups (Group I- Group III). Group I (Control group): rats were administered intragastrically with a single dose of vehicle (0.5% CMC-Na), and after 2 h of vehicle administration, digoxin (0.5 mg/kg) was given to the rats by intragastric administration. Group II: Rats received a single dose of garcinol (25 mg/kg) and digoxin (0.5 mg/kg) after 2 h. Group III: Verapamil (potent P-gp inhibitor) was administered to these rats followed by the administration of digoxin (results not shown). 0.2 mL of blood was collected at 0, 0.25, 0.5, 1, 2, 4, 6, 8, 24, and 48 h, plasma was separated immediately by centrifuging blood samples at 5000 rpm for 5 min and stored at −80 °C until analysis.
50 µL of plasma samples was crashed with ice-cold ACN containing internal standard (75 ng/mL) and vortexed gently and centrifuged at 10,000 rpm for 5 min. Supernatant was collected and submitted for LC-MS/MS analysis. LC-MS analysis was performed on LC-QTOF/MS (Agilent, 6540) and chromatographic separation was achieved on Waters X-Bridge C18 column (3.5 µm, 50 mm × 1.76 mm I.D) at 30 °C. Digoxin was analysed by a mobile phase consisting of solvent A (0.1% Formic acid in water) and solvent B (100% ACN) flow at a rate of 0.4 mL/min with a gradient program of 5 min. The program consisted of initial10 %B from 0.01 to 3.00 min, followed by 90% B from 3.01 to 4.00 min and again to 10% B from 4.01 to 5.00 min. [M+H]+ ions were identified and quantified for Digoxin and IS as 781.4369 and 515.2442, respectively. Optimized MS operating parameters were as follows: drying gas 10 L/min, gas temperature 325 °C, nebulizer at 40 psig, fragmentor voltage of 140 V and skimmer at 65 V.

[3] = biological target: T1, CYP1A2 (Rattus norvegicus, UniProt P04799); assay: CYP1A2 inhibition, probe substrate cocktail in rat liver microsomes (tacrine 1-hydroxylation)
T1 sequence (P04799 1-513): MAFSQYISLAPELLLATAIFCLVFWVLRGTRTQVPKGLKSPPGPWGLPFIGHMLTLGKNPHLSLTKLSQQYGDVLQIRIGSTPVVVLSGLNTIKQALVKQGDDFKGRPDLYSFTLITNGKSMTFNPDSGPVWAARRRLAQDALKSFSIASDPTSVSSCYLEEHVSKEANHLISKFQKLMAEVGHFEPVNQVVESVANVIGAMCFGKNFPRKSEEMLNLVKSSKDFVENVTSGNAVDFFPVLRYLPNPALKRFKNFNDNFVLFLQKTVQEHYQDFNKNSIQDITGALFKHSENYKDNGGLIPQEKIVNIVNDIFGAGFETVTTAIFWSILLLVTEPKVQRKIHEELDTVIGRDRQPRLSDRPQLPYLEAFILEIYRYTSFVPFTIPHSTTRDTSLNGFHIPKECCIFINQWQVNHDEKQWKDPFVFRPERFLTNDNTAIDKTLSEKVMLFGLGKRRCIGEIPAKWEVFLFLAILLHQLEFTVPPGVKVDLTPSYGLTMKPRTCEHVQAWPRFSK
Description: (§1) Tacrine was used as CYP1A2 probe substrate instead of Phenacetin to avoid the possible interactions of Phenacetin with CYP2E1 probe substrate Chlorzoxazone. […] The above incubation mixture was pre-incubated for 5 min at 37 °C and the reaction was started by adding NADPH and terminated by the addition of 200 µL of ice-cold acetonitrile containing internal standard (IS). Then the mixture was vortex mixed and centrifuged at 4000 rpm for 10 min at 4 °C and supernatant was separated and analysed using LC-MS/MS.
(§2) IC50 values were determined by comparing each CYP isozyme activity in the presence of different concentrations of inhibitor (Garcinol) with the control incubations containing no inhibitor (Negative control). […]
(§3) The entire procedure is same as mentioned in section 2.3 except for various concentrations of the formulations
(§4) and extracts (0.41-100 µg/mL) and garcinol (0.11-30 µM) were used in the study.

[4] = test system: CYP2B6; assay: CYP2B6 inhibition, probe substrate cocktail in rat liver microsomes (bupropion hydroxylation); format: in vitro ADME; conditions: pH 7.4, probe bupropion (hydroxylation)
Description: as §1, §2, §3, §4

[5] = test system: CYP2C8; assay: CYP2C8 inhibition, probe substrate cocktail in rat liver microsomes (paclitaxel 6α-hydroxylation); format: in vitro ADME; conditions: for Inhibition of CYP2C8 (in words): rat liver microsomes, garcinol up to 30 µM
Description: as §1, §2, §3, §4

[6] = test system: CYP2C9; assay: CYP2C9 inhibition, probe substrate cocktail in rat liver microsomes (diclofenac 4-hydroxylation); format: in vitro ADME; conditions: pH 7.4, probe diclofenac (4-hydroxylation), rat liver microsomes 0.5 mg/mL, garcinol 0.11-30 µM
Description: as §1, §2, §3, §4

[7] = test system: CYP2C19; assay: CYP2C19 inhibition, probe substrate cocktail in rat liver microsomes (S-mephenytoin 4-hydroxylation); format: in vitro ADME; conditions: pH 7.4, probe S-mephenytoin (4-hydroxylation), rat liver microsomes 0.5 mg/mL, garcinol 0.11-30 µM
Description: as §1, §2, §3, §4

[8] = test system: CYP2D6; assay: CYP2D6 inhibition, probe substrate cocktail in rat liver microsomes (dextromethorphan O-demethylation); format: in vitro ADME; conditions: pH 7.4, probe dextromethorphan (O-demethylation), rat liver microsomes 0.5 mg/mL, garcinol 0.11-30 µM
Description: as §1, §2, §3, §4

[9] = biological target: CYP2E1 (Rattus norvegicus, UniProt P05182); assay: CYP2E1 inhibition, probe substrate cocktail in rat liver microsomes (chlorzoxazone 6-hydroxylation)
Description: as §1, §2, §3, §4

[10] = test system: CYP3A4; assay: CYP3A4 inhibition, probe substrate cocktail in rat liver microsomes (midazolam 1-hydroxylation); format: in vitro ADME; conditions: pH 7.4, probe midazolam (1-hydroxylation), rat liver microsomes 0.5 mg/mL, garcinol 0.11-30 µM
Description: as §1, §2, §3, §4

[11] = test system: CYP isoforms; assay: Time-dependent inhibition, IC50 shift assay in rat liver microsomes; format: in vitro ADME; conditions: 30 min pre-incubation with and without NADPH, all tested CYP isoforms
Description: Garcinol was pre-incubated with rat liver microsomes to determine the time-dependent inhibition potential of garcinol on various CYP isoforms individually. After 30 min of incubation with and without NADPH separately, metabolites of each CYP probe substrates were quantified using LC-MS/MS. IC50 values with and without NADPH pre-incubation were calculated using graph-pad prism and change in IC50 fold was calculated to evaluate the potential of garcinol to inhibit the CYP enzymes irreversibly. If the curve shifts to lower IC50 value after the pre- incubation in presence of NADPH, it is said to be a time-dependent inhibition. Concentrations of the test compound and other procedure were same as reversible inhibition study mentioned under Section 2.3.

[12] = test system: P-gp; assay: Western blotting of P-gp expression in rat brain and intestine; format: in vivo, rats; conditions: garcinol 25 mg/kg intragastric once a day for 10 days, normalized to β-actin, p < 0.05
Description: For Western blot analysis, twelve rats were divided into two groups. […] On the 10th day, all the rats were sacrificed under CO2 euthanasia. Brain and intestine were isolated immediately and stored at −80 °C until use. 10 mg of intestinal and brain samples were lysed using ice-cold radio immunoprecipitation assay lysis buffer containing 0.02 mM phenylmethane sulfonyl fluoride for 30 min and ultrasonicated for 60 s at 20-s intervals in an ice bath. These samples were transferred to centrifugation tubes and centrifuged for 10 min at 8000 g by maintaining temperature at 4 °C. Supernatants were estimated for protein concentration using BCA protein assay kit by following the manufacturer’s instructions. Protein denaturation was performed by reconstituting the supernatant in lammelle buffer and boiled for 5 mins at 97 °C. The denatured samples were later separated on 10% SDS-polyacrylamide gel electrophoresis and then transferred onto a nitrocellulose membrane. The membrane was then blocked with 3% bovine serum albumin in Tris-buffered saline-Tween 20 (TBS-T) for 1 hr at 37 °C. These immunoblots were probed with primary monoclonal antibody P-gp (1:1000) or β-actin (1:1000) overnight at 4 °C. […] The band intensity of P-gp protein was normalized to that of β-actin detected using Azure biosystems.

[13] = test system: CYP3A4; conditions: rats, midazolam 10 mg/kg in probe mixture on day 8, with garcinol 25 mg/kg oral for 7 days, plasma; second block of Table 3
[14] = test system: CYP3A4; assay: in vivo; conditions: Sprague-Dawley, rat, plasma, po, 10 mg/kg
[15] = Sprague-Dawley, rat, po, 10 mg/kg
[16] = digoxin 0.5 mg/kg 2 h after single dose garcinol 25 mg/kg (group DGX + Garcinol)
[17] = Sprague-Dawley, digoxin 0.5 mg/kg intragastric 2 h after vehicle (group DGX)
[18] = rats, bupropion 10 mg/kg in probe mixture on day 8, with garcinol 25 mg/kg oral for 7 days

Sequence of CYP2E1 (P05182 whole entry): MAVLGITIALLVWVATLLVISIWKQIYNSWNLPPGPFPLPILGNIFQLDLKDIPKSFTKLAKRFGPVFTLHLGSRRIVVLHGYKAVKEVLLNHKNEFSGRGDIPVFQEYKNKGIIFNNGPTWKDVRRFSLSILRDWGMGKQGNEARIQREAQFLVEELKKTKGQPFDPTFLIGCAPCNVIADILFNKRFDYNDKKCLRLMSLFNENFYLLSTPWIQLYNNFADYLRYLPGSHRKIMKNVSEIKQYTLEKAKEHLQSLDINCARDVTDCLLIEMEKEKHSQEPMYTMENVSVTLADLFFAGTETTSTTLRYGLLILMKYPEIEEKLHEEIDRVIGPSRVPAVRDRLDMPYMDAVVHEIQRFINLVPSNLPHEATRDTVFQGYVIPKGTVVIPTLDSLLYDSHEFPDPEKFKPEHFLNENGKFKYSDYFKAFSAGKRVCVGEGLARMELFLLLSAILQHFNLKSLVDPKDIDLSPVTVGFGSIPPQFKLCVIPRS

Structure (SMILES): CC(NC(C)(C)C)C(=O)c1cccc(Cl)c1 (stereo not shown) [Bupropion, bupropion]
- AUC(0-inf) [1, 15]: 48.8 µg·h/mL
- AUC(0-t) [1, 15]: 48.2 µg·h/mL
- Cmax [1, 15]: 8.1 ± 0.121 µg/mL
- Tmax [1, 15]: 2.5 ± 3.52 h

Structure (SMILES): C[C@H]1O[C@@H](O[C@H]2[C@@H](O)C[C@H](O[C@H]3[C@@H](O)C[C@H](O[C@H]4CC[C@@]5(C)[C@H](CC[C@@H]6[C@@H]5C[C@@H](O)[C@]5(C)[C@@H](C7=CC(=O)OC7)CC[C@]65O)C4)O[C@@H]3C)O[C@@H]2C)C[C@H](O)[C@@H]1O [DGX, digoxin]
- Cl [2, 16]: 1.47476 ± 0.08534 L/h/kg
- Cl ([2]; digoxin 0.5 mg/kg intragastric 2 h after vehicle (group DGX)): 0.98406 ± 0.05687 L/h/kg
- Cmax ([2]; Sprague-Dawley, digoxin 0.5 mg/kg 2 h after single dose garcinol 25 mg/kg (group DGX + Garcinol)): 0.0168 ± 0.00422 µg/mL
- Cmax [2, 17]: 0.0261 ± 0.00523 µg/mL
- AUC(0-inf) [2, 17]: 0.254 ± 0.0192 µg·h/mL
- AUC(0-t) [2, 17]: 0.172 ± 0.0123 µg·h/mL
- half-life [2, 17]: 15.1 ± 0.35 h
- AUC(0-inf) [2, 16]: 0.172 ± 0.0126 µg·h/mL
- AUC(0-t) [2, 16]: 0.1514 ± 0.00058 µg·h/mL
- half-life [2, 16]: 7.32 ± 1.75 h

Structure (SMILES): C=C(C)[C@@H](CC=C(C)C)C[C@@]12C[C@@H](CC=C(C)C)C(C)(C)[C@@](CC=C(C)C)(C(=O)C(C(=O)c3ccc(O)c(O)c3)=C1O)C2=O [Garcinol]
- IC50 [3]: 7.6 µM
- IC50 [4]: 2.1 µM
- IC50 ([5]; pH 7.4, probe paclitaxel (6α-hydroxylation), rat liver microsomes 0.5 mg/mL, substrate paclitaxel, garcinol 0.11-30 µM): > 30 µM
- Inhibition of CYP2C8 (in words) [5]: no apparent inhibition
- Inhibition of CYP2C8 (in words) ([5]; listed as garcinol): negligibly inhibited
- IC50 [6]: 8 µM
- IC50 [7]: 16.4 µM
- IC50 [8]: 9.5 µM
- IC50 [9]: 19 µM
- IC50 [10]: 5.1 µM
- Shift in IC50 (time dependent inhibition) [11]: no significant shift
- Shift in IC50 (time dependent inhibition) ([11]; listed as garcinol): did not show shift
- P-gp expression increase vs control group ([12]; rat brain tissue): 1.62 fold
- P-gp expression increase vs control group ([12]; rat intestinal tissue): 1.07 fold
- Effect on P-gp function in vivo (in words) ([2]; rats, single dose garcinol 25 mg/kg, digoxin as P-gp substrate): not an inhibitor of P-gp

Structure (SMILES): C[C@H]1NC(C)(C)CO[C@]1(O)c1cccc(Cl)c1 [Hydroxy Bupropion, hydroxybupropion]
- AUC0-∞ [1, 18]: 6.20097 ± 0.10697 µg·h/mL
- AUClast [1, 18]: 6.05786 ± 0.10141 µg·h/mL
- Cmax [1, 18]: 0.63202 ± 0.03055 µg/mL
- Tmax [1, 18]: 1 ± 1.93 h
- t1/2 [1, 18]: 10.23 ± 0.04 h

Structure (SMILES): OCc1ncc2n1-c1ccc(Cl)cc1C(c1ccccc1F)=NC2 [hydroxy midazolam, 1-hydroxy midazolam]
- AUClast [13]: 0.73745 ± 0.06695 µg·h/mL
- Cmax [13]: 0.48285 ± 0.01434 µg/mL
- Tmax [13]: 0.25 ± 1.92 h
- t1/2 [13]: 2.15 ± 0.36 h

Structure (SMILES): Cc1ncc2n1-c1ccc(Cl)cc1C(c1ccccc1F)=NC2 [midazolam]
- AUC(0-inf) [14]: 1.14 ± 0.0774 µg·h/mL
- AUC(0-t) [14]: 1.24 ± 0.0186 µg·h/mL
- Cmax [14]: 0.829 ± 0.0157 µg/mL
- Tmax [14]: 0.5 ± 1.23 h
- half-life [14]: 3.12 ± 0.88 h
